Assay results as given in ChEMBL document CHEMBL3745676, “Alkylamino derivatives of N-benzylpyrazine-2-carboxamide: synthesis and antimycobacterial evaluation” (Medchemcomm, 2015).
≈ marks a conversion by molar mass, not a printed value. Calls of active or inactive are those of the source. The calls are words filed in the database; no cut-off is given here.

How the values were obtained:
Influenza A virus [1] = test: Antiviral activity against Influenza A virus (A/Puerto Rico/8/(H1N1)) assessed as inhibition of virus-induced cytopathic effect after 3 to 6 days by formazan-based MTS assay; assay type: functional, organism-based
[2] = Lipophilicity, logK of the compound by RP-HPLC analysis; assay type: physicochemical
Influenza A virus [3] = test: Antiviral activity against Influenza A virus (A/Puerto Rico/8/(H1N1)) assessed as inhibition of virus-induced cytopathic effect after 3 to 6 days by microscopic analysis; assay type: functional, organism-based
Staphylococcus aureus = test: Antibacterial activity against methicillin-resistant Staphylococcus aureus H 5996/08 after 24 to 48 hrs by broth microdilution method; assay type: functional, organism-based
[4] = Cytotoxicity against human HeLa cells assessed as cell viability after 4 to 6 days by microscopic analysis; assay type: cell-based
Mycobacterium avium [5] = test: Antimycobacterial activity against Mycobacterium avium CNCTC My 152/73 after 5 days by microplate alamar blue assay; assay type: functional; settings: CNCTC My 152/73, 120 h
Pichia kudriavzevii = test: Antifungal activity against Candida krusei E28 after 24 to 48 hrs by broth microdilution method; assay type: functional
[6] = Cytotoxicity against MDCK cells assessed as cell viability after 4 to 6 days by formazan-based MTS assay; set-up: species or system Canis lupus familiaris; settings: dog
Candida tropicalis = test: Antifungal activity against Candida tropicalis 156 after 24 to 48 hrs by broth microdilution method; assay type: functional
Klebsiella pneumoniae [7] = test: Antibacterial activity against Klebsiella pneumoniae D 11750/08 after 24 to 48 hrs by broth microdilution method; assay type: functional
[8] = Cytotoxicity against HEL cells assessed as cell viability after 4 to 6 days by microscopic analysis; assay type: cell-based; settings: human
[9] = Cytotoxicity against MDCK cells assessed as cell viability after 4 to 6 days by microscopic analysis; assay type: cell-based, Canis lupus familiaris; settings: dog
Lichtheimia corymbifera = test: Antifungal activity against Lichtheimia corymbifera 272 after 24 to 48 hrs by broth microdilution method; assay type: functional
[10] = system: Trichophyton mentagrophytes; test: Antifungal activity against Trichophyton mentagrophytes 445 after 72 to 120 hrs by broth microdilution method; assay type: functional
Pseudomonas aeruginosa = test: Antibacterial activity against Pseudomonas aeruginosa CCM 1961 after 24 to 48 hrs by broth microdilution method; assay type: functional
Mycobacterium avium [11] = test: Antimycobacterial activity against Mycobacterium avium CNCTC My 80/72 after 5 days by microplate alamar blue assay; assay type: functional; settings: CNCTC My 80/72, 120 h
Candida albicans = test: Antifungal activity against Candida albicans ATCC 44859 after 24 to 48 hrs by broth microdilution method; assay type: functional
Mycobacterium kansasii = test: Antimycobacterial activity against Mycobacterium kansasii CNCTC My 235/80 incubated for 5 to 7 days by microplate alamar blue assay; assay type: functional
[12] = system: Mycobacterium tuberculosis; test: Antimycobacterial activity against Mycobacterium tuberculosis H37Rv CNCTC My 331/88 incubated for 10 to 14 days by microplate alamar blue assay; assay type: functional
Klebsiella pneumoniae [13] = test: Antibacterial activity against ESBL positive Klebsiella pneumoniae J 14368/08 after 24 to 48 hrs by broth microdilution method; assay type: functional
Aspergillus fumigatus = test: Antifungal activity against Aspergillus fumigatus 231 after 24 to 48 hrs by broth microdilution method; assay type: functional
[14] = Cytotoxicity against CRFK cells assessed as cell viability after 4 to 6 days by formazan-based MTS assay; set-up: species or system Felis catus; settings: cat
Escherichia coli = test: Antibacterial activity against Escherichia coli CCM 4517 after 24 to 48 hrs by broth microdilution method; assay type: functional
Nakaseomyces glabratus = test: Antifungal activity against Candida glabrata 20/I after 24 to 48 hrs by broth microdilution method; assay type: functional
Trichosporon asahii = test: Antifungal activity against Trichosporon asahii 1188 after 24 to 48 hrs by broth microdilution method; assay type: functional
[15] = Cytotoxicity against African green monkey Vero cells assessed as cell viability after 4 to 6 days by microscopic analysis; assay type: cell-based; settings: chlorocebus sabaeus

Structure (SMILES) | EC50 (Influenza A virus [1]) [µM] | log K [2] | EC50 (Influenza A virus [3]) [µM] | Activity (Staphylococcus aureus) | MCC [4] [µM] | MIC (Mycobacterium avium [5]) [µg/mL] | MIC (Pichia kudriavzevii) [µM] | CC50 [6] [µM] | MIC (Candida tropicalis) [µM] | MIC95 (Klebsiella pneumoniae [7]) [µM] | MCC [8] [µM] | MCC [9] [µM] | MIC (Lichtheimia corymbifera) [µM] | MIC [10] [µM] | MIC95 (Pseudomonas aeruginosa) [µM] | MIC (Mycobacterium avium [11]) [µg/mL] | MIC (Candida albicans) [µM] | MIC (Mycobacterium kansasii) [µM] | MIC [12] [µM] | MIC95 (Klebsiella pneumoniae [13]) [µM] | also measured
CCCCCNc1cncc(C(=O)NCc2ccccc2)n1 | > 100 | 0.768 | > 100 | inactive | > 100 | > 100 | > 500 | 33 | > 500 | > 500 | > 100 | 20 | > 500 | > 500 | > 500 | > 100 | > 500 | 84 (≈ 25.1 µg/mL) | 42 (≈ 12.5 µg/mL) | > 500 | MIC (Aspergillus fumigatus): > 500 µM; CC50 [14]: > 100 µM; MIC95 (Escherichia coli): > 500 µM; MIC (Nakaseomyces glabratus): > 500 µM; MIC (Trichosporon asahii): > 500 µM; MCC [15]: > 100 µM
CCCCCCNc1cncc(C(=O)NCc2ccccc2)n1 | > 100 | 0.986 | > 100 | inactive | > 100 | > 100 | > 500 | 9.5 | > 500 | > 500 | > 100 | 20 | > 500 | > 500 | > 500 | > 100 | > 500 | 40 (≈ 12.5 µg/mL) | 20 (≈ 6.25 µg/mL) | > 500 | MIC (Aspergillus fumigatus): > 500 µM; CC50 [14]: > 100 µM; MIC95 (Escherichia coli): > 500 µM; MIC (Nakaseomyces glabratus): > 500 µM; MIC (Trichosporon asahii): > 500 µM; MCC [15]: 100 µM
CCCCNc1cncc(C(=O)NCc2ccccc2)n1 | > 100 | 0.549 | > 100 | inactive | > 100 | > 100 | > 500 | 66 | > 500 | > 500 | > 100 | 100 | > 500 | > 500 | > 500 | > 100 | > 500 | 176 (≈ 50 µg/mL) | 44 (≈ 12.5 µg/mL) | > 500 | MIC (Aspergillus fumigatus): > 500 µM; CC50 [14]: > 100 µM; MIC95 (Escherichia coli): > 500 µM; MIC (Nakaseomyces glabratus): > 500 µM; MIC (Trichosporon asahii): > 500 µM; MCC [15]: 100 µM
